Experimental findings from US7871998B2, “Diphenylazetidinone derivatives possessing cholesterol absorption inhibitory activity” (AstraZeneca AB, priority 2003, dated 2011) are described below.

Data set [1] can be described thus: Absorption in a Caco-2 cells model. As to conditions: human. In kind it is in vitro ADME. On the procedure:
(§1) Absorption of the compounds of formula (I) was tested in a Caco-2 cells model (Gastroenterology 1989, 96, 736): […]

The subject of data set [2] is Caco-2 cells. The data set is described as follows: Absorption in a Caco-2 cells model. The format is in vitro ADME. On the procedure:
as §1

For data set [3], the system named is ^14C-cholesterol absorption. The data set is described as follows: In vivo testing of cholesterol absorption inhibitors (A). Also on record: species or system C57BL/6 female mice. The settings on record: procedure A, gavage, mice. On the procedure:
In vivo Testing of Cholesterol Absorption Inhibitors (A)
C57BL/6 female mice were maintained on regular chow diet and housed in individual cages to collect faeces. Mice were fasted for 3 hours and then gavaged with vehicle or compound. Half an hour later the mice were gavaged with radiolabelled cholesterol. Six hours after the ^14C-cholesterol gavage blood samples were taken via the tail and plasma prepared to determine how much cholesterol were absorbed. 24 hours after the gavage of ^14C-cholesterol the mice were bled and plasma were prepared for analysis. Faeces were collected for 24 hours to assess absorption efficiency.

As a reminder, the Papp is the rate of passage across a membrane or cell layer, normalised by area and donor concentration. Higher therefore signals ready permeation. Regarding `CC(C)[C@@H](NC(=O)CNC(=O)COc1ccc([C@@H]2[C@@H](SCC(O)c3ccc(F)cc3)C(=O)N2c2ccc(F)cc2)cc1)C(=O)O` (stereo partly drawn) [Example 23, N-{[4-((2R,3R)-1-(4-fluorophenyl)-3-{[2-(4-fluorophenyl)-2-hydroxyethyl]thio}-4-oxoazetidin-2-yl)phenoxy]acetyl}glycyl-D-valine], the Papp in data set [1] amounted to 0.06 ×10⁻⁶ cm/s. Still for that read-out and setting: for `O=C(COc1ccc([C@@H]2[C@@H](SCC(O)c3ccc(F)cc3)C(=O)N2c2ccc(F)cc2)cc1)NCC(=O)N[C@H](Cc1ccc(O)cc1)C(=O)O` (stereo partly drawn) [Example 26, N-{[4-((2R,3R)-1-(4-fluorophenyl)-3-{[2-(4-fluorophenyl)-2-hydroxyethyl]thio}-4-oxoazetidin-2-yl)phenoxy]acetyl}glycyl-D-tyrosine] the value was 0.07 ×10⁻⁶ cm/s.

Consider `NCCCC[C@@H](NC(=O)CNC(=O)COc1ccc([C@@H]2[C@@H](SCC(O)c3ccc(F)cc3)C(=O)N2c2ccc(F)cc2)cc1)C(=O)O` (some centres unmarked) [Example 29], for which the Caco value in data set [2] was determined as 0.2 ×10⁻⁶ cm/s.

As for `O=C(COc1ccc([C@@H]2[C@@H](SCC(O)c3ccc(F)cc3)C(=O)N2c2ccc(F)cc2)cc1)NCC(=O)N[C@H](CC1CCCC1)C(=O)O` (stereo partly drawn) [Example 85, N-{[4-((2R,3R)-1-(4-fluorophenyl)-3-{[2-(4-fluorophenyl)-2-hydroxyethyl]thio}-4-oxoazetidin-2-yl)phenoxy]acetyl}glycyl-3-cyclopentyl-D-alanine], in data set [3] (0.2 μmol/kg), the “inhibition of ^14C-cholesterol absorption” value (“inhibition” below) turned out to be 47%. Take `NCCC[C@@H](NC(=O)CNC(=O)COc1ccc([C@@H]2[C@@H](SCC(O)c3ccc(F)cc3)C(=O)N2c2ccc(F)cc2)cc1)C(=O)O` (stereo partly drawn) [Example 91, N-{[4-((2R,3R)-1-(4-fluorophenyl)-3-{[2-(4-fluorophenyl)-2-hydroxyethyl]thio}-4-oxoazetidin-2-yl)phenoxy]acetyl}glycyl-D-ornithine]: the “inhibition” value in data set [3] (0.2 μmol/kg) is recorded as 58%. `O=C(COc1ccc([C@@H]2[C@@H](SCC(O)c3ccc(F)cc3)C(=O)N2c2ccc(F)cc2)cc1)N[C@@H](C(=O)N[C@@H](CO)C(=O)O)c1ccccc1` (stereo partly drawn) [Example 94, 1-(4-Fluorophenyl)-3-(R)-[2-(4-fluorophenyl)-2-hydroxyethylthio]-4-(R)-{4-[N-(α-(R)-{N-[2-(hydroxy)-1-(S)-(carboxy)ethyl]carbamoyl}benzyl)carbamoylmethoxy]phenyl}azetidin-2-one]: the “inhibition” value in data set [3] (5 μmol/kg) was determined as 89%. In the case of `O=C(COc1ccc([C@@H]2[C@@H](SCC(O)c3ccc(F)cc3)C(=O)N2c2ccc(F)cc2)cc1)NCC(=O)N[C@H](CO)C(=O)O` (stereo partly drawn) [Example 96, 1-(4-Fluorophenyl)-3-(R)-[2-(4-fluorophenyl)-2-hydroxyethylthio]-4-(R)-{4-[N-{N-[2-(hydroxy)-1-(R)-(carboxy)ethyl]carbamoylmethyl}carbamoylmethoxy]phenyl}azetidin-2-one], the “inhibition” value in data set [3] (5 μmol/kg) came out at 87%. `O=C(COc1ccc([C@@H]2[C@@H](SCC(O)c3ccc(F)cc3)C(=O)N2c2ccc(F)cc2)cc1)NCC(=O)N[C@H](Cc1ccccc1)C(=O)O` (stereo partly drawn) [Example 97, 1-(4-Fluorophenyl)-3-(R)-[2-(4-fluorophenyl)-2-hydroxyethylthio]-4-(R)-{4-[N-{N-[2-(phenyl)-1-(R)-(carboxy)ethyl]carbamoylmethyl}carbamoylmethoxy]phenyl}azetidin-2-one] gave a Caco value in data set [2] of 0.09 ×10⁻⁶ cm/s.
